In patent publication US9475824B2, “Fused pyrimidines as inhibitors of p97 complex” (Cleave Biosciences, Inc., priority 2012, dated 2016):

What follows are compounds tested against p97 (Homo sapiens, UniProt P55072) (assay: P97 ATPase biochemical assay (ADP Glo)). Conditions: 20 nM p97, 20 μM ATP, 37° C. 15 minutes.
Description: The ATPase assay is performed according the following protocol: Purified enzyme (20 nM p97), substrate (20 μM ATP) and a dose titration of compounds are mixed in buffer (50 mM TRIS pH 7.5, 20 mM MgCl2, 0.02% TX-100, 1 mM DTT, 0.2% (v/v) glycerol) and incubated at 37° C. for 15 minutes. The reaction is terminated and the level of product generated is measured using the ADP Glo Assay Kit (Promega, Madison Wis.). Plotting product generated versus compound concentration and using a four-parameter fit model generates an IC50 value for each compounds.
The p97 assay is an initial screening assay used to determine inhibitory activity of the fused pyrimidine compounds of the invention against the p97 complex. As discussed above, inhibition of activity of the p97 proteosome complex can enable apoptosis and cause elimination of neoplastic cells (cancer cells). The method follows that of Christianson in Nat.
Assay Buffer is a mixture of 50 mM TRIS pH 7.5, 20 mM MgCl2, 0.02% TX-100, 1 mM DTT and 0.2% (v/v) Glycerol. […] The identification kit is an ADP glo kit (Promega): stop buffer, detection reagent.
0.5 μL compound serial diluted in DMSO (Final Conc. 10%)
2 μL ATP (Final Conc.=20 uM, diluted in assay buffer)
2.5 μL p97 (Final Conc.=20 nM, diluted in assay buffer)
Incubate at 37 degC for 15 min.
Add 5 μL of stop buffer, incubate at RT for 40 min.
Add 10 μL of detection reagent, incubate at RT for 30 min.
Read luminescence on Envision plate reader.
Plot normalized luminescence data against log-transformed concentration values and fit to a sigmoidal curve to determine IC50 values (done in Collaborative Drug Discovery software).

p97, sequence (P55072 whole entry): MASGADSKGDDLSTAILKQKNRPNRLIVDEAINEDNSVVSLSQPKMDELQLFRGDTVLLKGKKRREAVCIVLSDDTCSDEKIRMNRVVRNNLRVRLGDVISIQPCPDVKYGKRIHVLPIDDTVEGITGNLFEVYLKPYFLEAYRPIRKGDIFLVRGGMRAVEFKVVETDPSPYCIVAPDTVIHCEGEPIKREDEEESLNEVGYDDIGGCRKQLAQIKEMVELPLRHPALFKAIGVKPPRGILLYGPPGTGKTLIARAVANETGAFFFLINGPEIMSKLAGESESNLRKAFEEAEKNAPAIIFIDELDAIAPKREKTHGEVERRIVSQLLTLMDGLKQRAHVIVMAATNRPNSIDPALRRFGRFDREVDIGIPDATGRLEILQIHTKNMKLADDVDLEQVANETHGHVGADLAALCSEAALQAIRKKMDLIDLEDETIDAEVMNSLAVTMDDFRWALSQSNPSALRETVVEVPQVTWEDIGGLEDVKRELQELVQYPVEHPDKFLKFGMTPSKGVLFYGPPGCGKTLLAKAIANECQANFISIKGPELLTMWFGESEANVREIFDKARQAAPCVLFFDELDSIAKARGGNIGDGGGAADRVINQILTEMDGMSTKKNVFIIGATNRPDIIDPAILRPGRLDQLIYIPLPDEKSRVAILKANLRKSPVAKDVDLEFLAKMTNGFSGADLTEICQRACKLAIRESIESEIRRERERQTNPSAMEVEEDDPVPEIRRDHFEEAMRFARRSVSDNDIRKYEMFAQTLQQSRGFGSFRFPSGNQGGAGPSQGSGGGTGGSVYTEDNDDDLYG

Row | SMILES | IC50
1 | COc1cccc2c(NCc3ccccc3)nc(-n3c(OC)nc4ccccc43)nc12 [compound 1, N-benzyl-8-methoxy-2-(2-methoxy-1H-1,3-benzodiazol-1-yl)quinazolin-4-amine] | < 100 nM
2 | Cc1cc2ccccc2n1-c1nc(NCc2ccccc2)c2cccc(CN)c2n1 [compound 2, 8-(aminomethyl)-N-benzyl-2-(2-methyl-1H-indol-1-yl)quinazolin-4-amine] | < 1000 nM
3 | COc1nc2ccccc2n1-c1nc(NCc2ccccc2)c2ncsc2n1 [compound 4, N-benzyl-5-(2-methoxy-1H-1,3-benzodiazol-1-yl)-[1,3]thiazolo[5,4-d]pyrimidin-7-amine] | < 100 nM
4 | COc1cccc2c(NCc3ccccc3)nc(-n3c(C)cc4ccccc43)nc12 [compound 8, N-benzyl-8-methoxy-2-(2-methyl-1H-indol-1-yl)quinazolin-4-amine] | < 100 nM
5 | Cc1cc2ccccc2n1-c1nc2c(c(NCc3ccccc3)n1)CNCC2 [compound 10, N-benzyl-2-(2-methyl-1H-indol-1-yl)-5H,6H,7H,8H-pyrido[4,3-d]pyrimidin-4-amine] | < 300 nM
6 | Cc1cc2ccccc2n1-c1nc2c(c(NCc3ccccc3)n1)CCNC2 [compound 11, N-benzyl-2-(2-methyl-1H-indol-1-yl)-5H,6H,7H,8H-pyrido[3,4-d]pyrimidin-4-amine] | < 300 nM
7 | COc1cccc2c(NCc3ccccc3)nc(-n3c(CN)cc4ccccc43)nc12 [compound 15, 2-[2-(aminomethyl)-1H-indol-1-yl]-N-benzyl-8-methoxyquinazolin-4-amine] | < 100 nM
8 | COc1cccc2c(NCc3ccccc3)nc(-c3c(C)oc4ccccc34)nc12 [compound 16, N-benzyl-8-methoxy-2-(2-methyl-1-benzofuran-3-yl)quinazolin-4-amine] | < 1000 nM
9 | Cc1cc2ccccc2n1-c1nc(NCc2ccccc2)c2cccc(C(N)=O)c2n1 [compound 17, 4-(benzylamino)-2-(2-methyl-1H-indol-1-yl)quinazoline-8-carboxamide] | < 300 nM
10 | Cc1cc2ccccc2n1-c1nc(NCc2ccccc2)c2cccc(C#N)c2n1 [compound 19, 4-(benzylamino)-2-(2-methyl-1H-indol-1-yl)quinazoline-8-carbonitrile] | < 1000 nM
11 | CC(=O)N1CCc2c(nc(-n3c(C)cc4ccccc43)nc2NCc2ccccc2)C1 [compound 20, 1-[4-(benzylamino)-2-(2-methyl-1H-indol-1-yl)-5H,6H,7H,8H-pyrido[3,4-d]pyrimidin-7-yl]ethan-1-one] | < 100 nM
12 | CC(N)c1cc2ccccc2n1-c1nc2c(c(NCc3ccccc3)n1)CCCC2 (stereo not drawn) [compound 22, 2-[2-(1-aminoethyl)-1H-indol-1-yl]-N-benzyl-5,6,7,8-tetrahydroquinazolin-4-amine] | < 1000 nM
13 | COCCOc1cccc2c(NCc3ccccc3)nc(-n3c(CN)cc4ccccc43)nc12 [compound 23] | < 300 nM
14 | CCN1CCc2nc(-n3c(C)cc4ccccc43)nc(NCc3ccccc3)c2C1 [compound 63, N-benzyl-6-ethyl-2-(2-methyl-1H-indol-1-yl)-5H,6H,7H,8H-pyrido[4,3-d]pyrimidin-4-amine] | < 1000 nM
15 | CCCN1CCc2nc(-n3c(C)cc4ccccc43)nc(NCc3ccccc3)c2C1 [compound 65, N-benzyl-2-(2-methyl-1H-indol-1-yl)-6-propyl-5H,6H,7H,8H-pyrido[4,3-d]pyrimidin-4-amine] | < 1000 nM
16 | N#Cc1cccc2c1nc(CN)n2-c1nc2c(c(NCc3ccccc3)n1)CCCC2 [compound 87, 2-(aminomethyl)-1-[4-(benzylamino)-5,6,7,8-tetrahydroquinazolin-2-yl]-1H-1,3-benzodiazole-4-carbonitrile] | < 1000 nM
17 | COCCOc1cccc2c(NCc3ccccc3)nc(-n3c(CN)nc4c(C(N)=O)cccc43)nc12 [compound 88, 2-(aminomethyl)-1-[4-(benzylamino)-8-(2-methoxyethoxy)quinazolin-2-yl]-1H-1,3-benzodiazole-4-carboxamide] | < 1000 nM
18 | Oc1nc2ccccc2n1-c1nc2c(c(NCc3ccccc3)n1)CCCC2 [compound 89, 1-[4-(benzylamino)-5,6,7,8-tetrahydroquinazolin-2-yl]-1H-1,3-benzodiazol-2-ol] | < 1000 nM
19 | COc1nc2c(C(=O)O)cccc2n1-c1nc2c(c(NCc3ccccc3)n1)CCCC2 [compound 116, 1-[4-(benzylamino)-5,6,7,8-tetrahydroquinazolin-2-yl]-2-methoxy-1H-1,3-benzodiazole-4-carboxylic acid] | < 30 nM

Next, values leading:

Row | IC50 | SMILES
20 | < 300 nM | Cc1cc2ccccc2n1-c1nc2c(c(NCc3ccccc3)n1)COC2 [compound 18, N-benzyl-2-(2-methyl-1H-indol-1-yl)-5H,7H-furo[3,4-d]pyrimidin-4-amine]
21 | < 300 nM | Cc1cc2c(F)cccc2n1-c1nc2c(c(NCc3ccccc3)n1)CNCC2 [compound 41, N-benzyl-2-(4-fluoro-2-methyl-1H-indol-1-yl)-5H,6H,7H,8H-pyrido[4,3-d]pyrimidin-4-amine]
22 | < 1000 nM | COc1cccc2c1cc(C)n2-c1nc2c(c(NCc3ccccc3)n1)CNCC2 [compound 43]
23 | < 1000 nM | Cc1nc2c(C(N)=O)cccc2n1-c1nc2c(c(NCc3ccccc3)n1)CNCC2 [compound 83, 1-[4-(benzylamino)-5H,6H,7H,8H-pyrido[4,3-d]pyrimidin-2-yl]-2-methyl-1H-1,3-benzodiazole-4-carboxamide]
24 | < 100 nM | NCc1cc2c(C(N)=O)cccc2n1-c1nc2c(c(NCc3ccccc3)n1)COCC2 [compound 86, 2-(aminomethyl)-1-[4-(benzylamino)-5H,7H,8H-pyrano[4,3-d]pyrimidin-2-yl]-1H-indole-4-carboxamide]
25 | < 1000 nM | COc1cc2c(C(N)=O)cccc2n1-c1nc2c(c(NCc3ccccc3)n1)CNCC2 [compound 92, 1-[4-(benzylamino)-5H,6H,7H,8H-pyrido[4,3-d]pyrimidin-2-yl]-2-methoxy-1H-indole-4-carboxamide]
26 | < 1000 nM | CN(C)Cc1cc2c(C(N)=O)cccc2n1-c1nc2c(c(NCc3ccccc3)n1)COCC2 [compound 95, 1-[4-(benzylamino)-5H,7H,8H-pyrano[4,3-d]pyrimidin-2-yl]-2-[(dimethylamino)methyl]-1H-indole-4-carboxamide]
27 | < 1000 nM | Cc1cc2c(C(=O)NC(C)C)cccc2n1-c1nc2c(c(NCc3ccccc3)n1)COCC2 [compound 99, 1-[4-(benzylamino)-5H,7H,8H-pyrano[4,3-d]pyrimidin-2-yl]-2-methyl-N-(propan-2-yl)-1H-indole-4-carboxamide]
28 | < 1000 nM | Cc1cc2c(C(=O)NCCN(C)C)cccc2n1-c1nc2c(c(NCc3ccccc3)n1)COCC2 [compound 102, 1-[4-(benzylamino)-5H,7H,8H-pyrano[4,3-d]pyrimidin-2-yl]-N-[2-(dimethylamino)ethyl]-2-methyl-1H-indole-4-carboxamide]
29 | < 100 nM | Cc1cc2c(C(=O)O)cccc2n1-c1nc2c(c(NCc3ccccc3)n1)CNCC2 [compound 117, 1-[4-(benzylamino)-5H,6H,7H,8H-pyrido[4,3-d]pyrimidin-2-yl]-2-methyl-1H-indole-4-carboxylic acid]
30 | < 1000 nM | Cc1cc2c(C(=N)N)cccc2n1-c1nc2c(c(NCc3ccccc3)n1)COCC2 [compound 119]
